According to BindingDB's records for doi:10.1021/jm500763m (Beijing Institute of Pharmacology & Toxicology, 2014):
Square brackets hold non-standard residues; d marks the D form. Peptide text beside a SMILES is read from it. * marks the point of attachment. X3 = C=C(C)[C@@H]1CC[C@]2(C(=O)O)CC[C@]3(C)[C@H](CC[C@@H]4[C@@]5(C)CC[C@H](OC(=O)CCc6cn(CC(=O)*)nn6)C(C)(C)[C@@H]5CC[C@]43C)[C@@H]12; X2 = C=CCOC(=O)[C@]12CCC(C)(C)C[C@H]1C1=CC[C@@H]3[C@@]4(C)CC[C@H](OC(=O)CCc5cn(CC(=O)*)nn5)C(C)(C)[C@@H]4CC[C@@]3(C)[C@]1(C)CC2; βAla = NCCC(=O)O

Experiment: Inhibition of HIV1 gp41-induced cell-cell fusion between viral envelope expressing human HL2/3 cells to CD4/CCR5 receptor expressing TZM-bl cells after 6 to 8 hrs by luciferase assay

| SMILES | EC50 |
| --- | --- |
| C=C(C)[C@@H]1CC[C@]2(C(=O)O)CC[C@]3(C)[C@H](CC[C@@H]4[C@@]5(C)CC[C@H](O)C(C)(C)[C@@H]5CC[C@]43C)[C@@H]12 | > 100 µM |
| CC[C@H](C)[C@H](NC(=O)[C@H](CC(C)C)NC(=O)[C@H](CO)NC(=O)[C@H](Cc1cnc[nH]1)NC(=O)[C@@H](NC(=O)[C@H](CC(C)C)NC(=O)[C@H](CO)NC(=O)[C@@H](NC(=O)[C@H](Cc1ccc(O)cc1)NC(=O)[C@H](CC(N)=O)NC(=O)[C@H](CC(N)=O)NC(C)=O)[C@@H](C)O)[C@@H](C)CC)C(=O)N[C@@H](CCC(=O)O)C(=O)N[C@@H](CCC(=O)O)C(=O)N[C@@H](CO)C(=O)N[C@@H](CCC(N)=O)C(=O)N[C@@H](CC(N)=O)C(=O)N[C@@H](CCC(N)=O)C(=O)N[C@@H](CCC(N)=O)C(=O)N[C@@H](CCC(=O)O)C(=O)N[C@@H](CCCCN)C(=O)N[C@@H](CC(N)=O)C(=O)N[C@@H](CCC(=O)O)C(=O)N[C@@H](CCC(N)=O)C(=O)N[C@@H](CCC(=O)O)C(=O)N[C@@H](CC(C)C)C(=O)N[C@@H](CC(C)C)C(N)=O (Ac-NNYTSLIHSLIEESQNQQEKNEQELL-NH2) | 3.24 µM |
| C=CCOC(=O)[C@]12CCC(C)(C)C[C@H]1C1=CC[C@@H]3[C@@]4(C)CC[C@H](OC(=O)CCc5cn(CC(=O)NCCCC[C@H](NC(=O)CCNC(=O)[C@H](CC(C)C)NC(=O)[C@H](CC(C)C)NC(=O)[C@H](CCC(=O)O)NC(=O)[C@H](CCC(N)=O)NC(=O)[C@H](CCC(=O)O)NC(=O)[C@H](CC(N)=O)NC(=O)[C@H](CCCCN)NC(=O)[C@H](CCC(=O)O)NC(=O)[C@H](CCC(N)=O)NC(=O)[C@H](CCC(N)=O)NC(=O)[C@H](CC(N)=O)NC(=O)[C@H](CCC(N)=O)NC(=O)[C@H](CO)NC(=O)[C@H](CCC(=O)O)NC(=O)[C@H](CCC(=O)O)NC(=O)[C@@H](NC(=O)[C@H](CC(C)C)NC(=O)[C@H](CO)NC(=O)[C@H](Cc6cnc[nH]6)NC(=O)[C@@H](NC(=O)[C@H](CC(C)C)NC(=O)[C@H](CO)NC(=O)[C@@H](NC(=O)[C@H](Cc6ccc(O)cc6)NC(=O)[C@H](CC(N)=O)NC(=O)[C@H](CC(N)=O)NC(C)=O)[C@@H](C)O)[C@@H](C)CC)[C@@H](C)CC)C(N)=O)nn5)C(C)(C)[C@@H]4CC[C@@]3(C)[C@]1(C)CC2 (Ac-NNYTSLIHSLIEESQNQQEKNEQELL[βAla]K(X2)-NH2) | 0.0033 µM |
| C=C(C)[C@@H]1CC[C@]2(C(=O)O)CC[C@]3(C)[C@H](CC[C@@H]4[C@@]5(C)CC[C@H](OC(=O)CCc6cn(CC(=O)NCCCC[C@H](NC(=O)CCNC(=O)[C@H](CC(C)C)NC(=O)[C@H](CC(C)C)NC(=O)[C@H](CCC(=O)O)NC(=O)[C@H](CCC(N)=O)NC(=O)[C@H](CCC(=O)O)NC(=O)[C@H](CC(N)=O)NC(=O)[C@H](CCCCN)NC(=O)[C@H](CCC(=O)O)NC(=O)[C@H](CCC(N)=O)NC(=O)[C@H](CCC(N)=O)NC(=O)[C@H](CC(N)=O)NC(=O)[C@H](CCC(N)=O)NC(=O)[C@H](CO)NC(=O)[C@H](CCC(=O)O)NC(=O)[C@H](CCC(=O)O)NC(=O)[C@@H](NC(=O)[C@H](CC(C)C)NC(=O)[C@H](CO)NC(=O)[C@H](Cc7cnc[nH]7)NC(=O)[C@@H](NC(=O)[C@H](CC(C)C)NC(=O)[C@H](CO)NC(=O)[C@@H](NC(=O)[C@H](Cc7ccc(O)cc7)NC(=O)[C@H](CC(N)=O)NC(=O)[C@H](CC(N)=O)NC(C)=O)[C@@H](C)O)[C@@H](C)CC)[C@@H](C)CC)C(N)=O)nn6)C(C)(C)[C@@H]5CC[C@]43C)[C@@H]12 (Ac-NNYTSLIHSLIEESQNQQEKNEQELL[βAla]K(X3)-NH2) | 0.044 µM |
